Experimental data from patent US7598418B2, “Amide derivatives” (Institute of Medicinal Molecular Design, Inc., priority 2002, dated 2009).

Tested on: Jurkat cells
Assay: Jurkat cell proliferation, MTS method: compound alone or combined with bleomycin
Type: cell-based
Design: key: ┌++┘ indicates observation of remarkable enhancement; ┌+┘ indicates moderated enhancement
Details: compound plus bleomycin 5 μg/ml or 10 μg/ml, 36 hours, survival rate vs DMSO control
Protocol: By using aforementioned synthetic compounds, effects on proliferation of Jurkat cells by sole administration and inhibitory effects on cell proliferation by administration in combination with bleomycin were examined. Materials and methods are as follows. Jurkat cells obtained from Dainippon Pharmaceutical Co. Ltd. were inoculated at about 10,000 cells per well in a 96 well culture plate, and incubated in 10% bovine fetal serum (Irvine Scientific) supplemented with RPMI1640 (ICN) medium in 5% CO2 incubator at 37° C. […] 36 hours after the incubation, the number of living cells was counted by the MTS method.
More specifically, 20 μl of CellTiter96™ AQueous One Solution (Promega) was added per one well, and after the cells were incubated for additional one hour, an absorbance at 490 nm was measured by using a microplate reader. The same culture added with DMSO as a solvent at final concentration of 0.25% was used as a control. The number of cells in the control was considered as 100% survival rate, and for each compound, survival rates by sole administration or a combined administration were calculated. […] In the table, ┌++┘ indicates observation of remarkable enhancement, ┌+┘ indicates moderated enhancement.

With Nc1cccc(CNS(=O)(=O)c2ccc3c(O)cccc3c2)c1 [Compound 4-7, N-(3-Aminobenzyl)-5-hydroxynaphthalene-2-sulfonamide] the “Activity (enhancement of inhibitory effect on cell proliferation in combination with bleomycin)” value was “+”.

For COc1ccccc1CNS(=O)(=O)c1cccc2c(O)cccc12 [Compound 2-11, N-(2-Methoxylbenzyl)-5-hydroxynaphthalene-1-sulfonamide], the “Activity (enhancement of inhibitory effect on cell proliferation in combination with bleomycin)” value was “+”.

For CC(=O)Oc1cccc2cc(S(=O)(=O)NCc3ccc(C)o3)ccc12 [Compound 3-9, 5-Acetyloxy-N-[(5-methylfuran-2-yl)methyl]naphthalene-2-sulfonamide], the “Activity (enhancement of inhibitory effect on cell proliferation in combination with bleomycin)” value was “+”.

In the case of O=S(=O)(NCCc1ccccc1)c1cccc2c(O)cccc12 [Compound 2-25, N-(2-Phenethyl)-5-hydroxynaphthalene-1-sulfonamide], the “Activity (enhancement of inhibitory effect on cell proliferation in combination with bleomycin)” value is reported as “+”.

With COc1cccc(CNS(=O)(=O)c2cccc3c(OS(=O)(=O)c4ccc(C)cc4)cccc23)c1OC [Compound 1-13, N-(2,3-Dimethoxybenzyl)-5-{[(4-methylphenyl)sulfonyl]oxy}naphthalene-1-sulfonamide] the “Activity (enhancement of inhibitory effect on cell proliferation in combination with bleomycin)” value was “+”.

In the case of O=S(=O)(NCc1cccc2ccccc12)c1ccc2c(O)cccc2c1 [Compound 4-8, N-(1-Naphthylmethyl)-5-hydroxynaphthalene-2-sulfonamide], the “Activity (enhancement of inhibitory effect on cell proliferation in combination with bleomycin)” value is reported as “+”.

For COc1cccc(CNS(=O)(=O)c2cccc3c(OS(=O)(=O)c4ccc(C)cc4)cccc23)c1 [Compound 1-12, N-(3-Methoxybenzyl)-5-{[(4-methylphenyl)sulfonyl]oxy}naphthalene-1-sulfonamide], the “Activity (enhancement of inhibitory effect on cell proliferation in combination with bleomycin)” value was “+”.

In the case of Cc1ccc(S(=O)(=O)Oc2cccc3c(S(=O)(=O)N(C)Cc4ccccc4)cccc23)cc1 [Compound 1-27, N-Benzyl-N-methyl-5-{[(4-methylphenyl)sulfonyl]oxy}naphthalene-1-sulfonamide], the “Activity (enhancement of inhibitory effect on cell proliferation in combination with bleomycin)” value is reported as “+”.

For Cc1ccc(S(=O)(=O)Oc2cccc3c(S(=O)(=O)NCc4cccc5ccccc45)cccc23)cc1 [Compound 1-19, N-(1-Naphthylmethyl)-5-{[(4-methylphenyl)sulfonyl]oxy}naphthalene-1-sulfonamide], the “Activity (enhancement of inhibitory effect on cell proliferation in combination with bleomycin)” value was “++”.

For COc1ccccc1CNS(=O)(=O)c1cccc2c(OS(=O)(=O)c3ccc(C)cc3)cccc12 [Compound 1-11, N-(2-Methoxybenzyl)-5-{[(4-methylphenyl)sulfonyl]oxy}naphthalene-1-sulfonamide], the “Activity (enhancement of inhibitory effect on cell proliferation in combination with bleomycin)” value was “++”.

In the case of CC(C)(C)c1ccc(CNS(=O)(=O)c2ccc3c(N)cccc3c2)cc1 [Compound 6-2, 5-Amino-N-[4-(tert-butyl)benzyl]naphthalene-2-sulfonamide], the “Activity (enhancement of inhibitory effect on cell proliferation in combination with bleomycin)” value is reported as “+”.

For CC(C)(C)c1ccc(CNS(=O)(=O)c2ccc3c(O)cccc3c2)cc1 [Compound 4-4, N-[4-(tert-Butyl)benzyl]-5-hydroxynaphthalene-2-sulfonamide], the “Activity (enhancement of inhibitory effect on cell proliferation in combination with bleomycin)” value was “++”.

For O=S(=O)(NCC1CCCCC1)c1cccc2c(O)cccc12 [Compound 2-23, N-Cyclohexylmethyl-5-hydroxynaphthalene-1-sulfonamide], the “Activity (enhancement of inhibitory effect on cell proliferation in combination with bleomycin)” value was “+”.

Cc1ccc(S(=O)(=O)Oc2cccc3c(S(=O)(=O)NCc4cccc(N)c4)cccc23)cc1 [Compound 1-16, N-(3-Aminobenzyl)-5-{[(4-methylphenyl)sulfonyl]oxy}naphthalene-1-sulfonamide] was tested, and the “Activity (enhancement of inhibitory effect on cell proliferation in combination with bleomycin)” value was “+”.

For Cc1ccc(S(=O)(=O)Oc2cccc3c(S(=O)(=O)NCc4ccc([N+](=O)[O-])cc4)cccc23)cc1 [Compound 1-5, N-(4-Nitrobenzyl)-5-{[(4-methylphenyl)sulfonyl]oxy}naphthalene-1-sulfonamide], the “Activity (enhancement of inhibitory effect on cell proliferation in combination with bleomycin)” value was “++”.

Nc1cccc2c(C(=O)NCc3ccccc3)cccc12 [Compound 11-1, 5-Amino-N-benzylnaphthalene-1-carboxamide] was tested, and the “Activity (enhancement of inhibitory effect on cell proliferation in combination with bleomycin)” value was “+”.

In the case of O=S(=O)(NCc1ccccc1)c1ccc2c(O)cccc2c1 [Compound 4-1, N-Benzyl-5-hydroxynaphthalene-2-sulfonamide], the “Activity (enhancement of inhibitory effect on cell proliferation in combination with bleomycin)” value is reported as “+”.

For CC(C)(C)c1ccc(CNS(=O)(=O)c2cccc3cc(N)ccc23)cc1 [Compound 8-2, 6-Amino-N-[4-(tert-butyl)benzyl]naphthalene-1-sulfonamide], the “Activity (enhancement of inhibitory effect on cell proliferation in combination with bleomycin)” value was “+”.
